Data taken from US20230003721A1, “MITOTHERAPEUTICS FOR THE TREATMENT OF BRAIN DISORDERS” (The University of Florida Research Foundation, Inc., priority 2019, published 2023).
Counter-ions that a name gives are not always drawn. Like-named read-outs stand apart in the source and are kept apart here.

Columns and labels:
[1] = test system: primary neurons; experiment: CellTiter-Glo luminescence-based ATP assay; format: cell-based, mouse; conditions: for ATP: ATP orthogonal screen, 24 h; for EC50: 15 concentrations from 6 nM to 100 uM; for Emax: read-out: ATP (Effect-size)
Protocol: Measurement of ATP production. The total amount of ATP produced by cultured primary neurons was measured by CellTiter-Glo Luminescent Cell Viability Assay (Promega). A recombinant luciferase enzyme catalyzed the mono-oxygenation of luciferin while hydrolyzing ATP produced by the cells and emitting light. We followed the manufacturer's protocol with primary neurons on DIV14.
(§1) A CLARIOstar (BMG LABTECH) microplate reader was used to measure fluorescence of TMRM and luminescence produced from the ATP.
(§2) Mitochondrial membrane potential (Δψm) and luminescence-based ATP assays. […] Changes of ΔΨm in each well were monitored using the mitochondrial-specific, fluorescent dye TMRM (tetramethyl rhodamine, methyl ester; Molecular Probes) and measured using a CLARIOstar plate reader. […] This concentration was used throughout our experiments. […] Wells in columns 1 and 24 were not loaded with TMRM; these served to measure background signal which was subtracted from the wells to which TMRM was added. To measure the total ATP levels in neurons we utilized the CellTiter-Glo® luminescence-based ATP assay (Promega). DIV13 primary neurons were cultured for 24 h with either DMSO carrier or compound treatment, followed by removing 55 μl culture medium from each well. Plates were maintained at room temperature for 25 m, and 25 μl of CellTiter-Glo® Reagent with the substrate luciferin was then added to each well (Promega). Plates were covered with aluminum foil and shaken vigorously on an orbital shaker for 10 m at 200 rpm and maintained at room temperature for an additional 2 m in dark before being read with the plate reader set to the luminescence mode.
Compound library and hit picking rules. We screened 2400 compounds from the MicroSource Spectrum library. […] FIGS. 13A-13E provide details of the assays used from which hit picking rules were made. In essence, the average fluorescence for each compound in the TMRM assay was determined and compared to the average fluorescence for compounds in the population on each assay plate to produce a Z-score. The Z-scores for each individual compound assayed across the four replicate plates was then averaged. Because of significant well location effects (outer rows) on each assay plate (FIG. 13G), we selected primary hits as enhancing well fluorescence above the μplate by 3σplate for inner row wells (rows C-N, columns 3-22), and by 2.5σplate for outer row wells (rows A, B, O, P; columns 3-22) (FIG. 14C-D). […] All orthogonal assays employed inner wells of the 384-well plates.

[2] = test system: primary neurons; experiment: TMRM fluorescence assay of inner mitochondrial membrane potential (ΔΨm); conditions: for EC50: read-out: TMRM-EC50; for Emax: read-out: TMRM (Effect-size)
Protocol: Mitochondrial dyes. To assay the electrochemical potential across the inner mitochondrial membrane of cultured cells, we used the cell-permeant dye tetramethylrhodamine methyl ester (TMRM). For co-localization studies with Mt-GFP, TMRM was used at 20 nM on DIV14 and incubated for 30 min prior to imaging. For the orthogonal screen of compounds, TMRM was added to primary neurons on DIV13 at 10 nM, one hr prior to pintooling selected compounds, and incubated for 24 hr. Cells were washed 2× with pre-warmed fresh feeding media without B27 before measurements with a plate reader.
as §1, §2
Compound library and hit picking rules. We screened 2400 compounds from the MicroSource Spectrum library. […] FIGS. 13A-13E provide details of the assays used from which hit picking rules were made. In essence, the average fluorescence for each compound in the TMRM assay was determined and compared to the average fluorescence for compounds in the population on each assay plate to produce a Z-score. The Z-scores for each individual compound assayed across the four replicate plates was then averaged.

[3] = maximal percent increase relative to in-plate DMSO controls, dose response
[4] = Mus musculus, Primary neuron, dose response
[5] = Mus musculus, Primary neuron, maximal percent increase relative to in-plate DMSO controls, dose response

Compound	ATP [1] [Z-scores]	TMRM Primary ([2]; primary screen, 12.5 μM, 24 h) [Z-scores]	TMRM Rescreen ([2]; rescreen, 24 h) [Z-scores]	further results
CN(C)CCOc1ccc(/C(=C(/CCCl)c2ccccc2)c2ccccc2)cc1 [toremifene citrate]	3.29	3.31	7.05	
CN(C)CCCN1c2ccccc2CCc2ccccc21 [imipramine hydrochloride]	5.10	3.31	0.91	
CCCCNc1ccc(C(=O)OCCOCCOCCOCCOCCOCCOCCOCCOCCOC)cc1 [benzonatate]	4.35	2.78	8.21	
acetophenazine maleate	5.65	5.64	5.34	EC50 ([1]; dose response): 300 nM; ATP (Effect-size) [1, 3]: 16.7%; TMRM (Effect-size) [2, 3]: 17.5%; EC50 ([2]; dose response, 15 concentrations from 6 nM to 100 uM): 1150 nM
CC(C)CCC[C@@H](C)[C@H]1CC[C@H]2[C@@H]3CC(=O)[C@H]4C[C@@H](O)CC[C@]4(C)[C@H]3CC[C@]12C [5alpha-cholestan-3beta-ol-6-one]	5.86	7.10	7.61	
COc1cc2nc(N3CCN(C(=O)C4COc5ccccc5O4)CC3)nc(N)c2cc1OC (centres unmarked) [doxazosin mesylate]	4.68	4.39	5.94	
CN(C)CCN(Cc1ccc(Cl)cc1)c1ccccn1 [chloropyramine hydrochloride]	3.26	3.35	5.24	
CSc1nc2cc(Cl)c(Oc3cccc(Cl)c3Cl)cc2[nH]1 [triclabendazole]	3.97	3.30	3.61	
C[C@]12CC[C@@H]3c4ccc(O)cc4C[C@@H](CCCCCCCCC[S+]([O-])CCCC(F)(F)C(F)(F)F)[C@H]3[C@@H]1CC[C@@H]2O (some centres unmarked) [fulvestrant]	4.27	3.31	6.27	
trimeprazine tartrate	5.75	3.13	3.94	
C=C[C@](C)(O)CC[C@@H]1[C@@]2(C)CCCC(C)(C)[C@@H]2CC[C@@]1(C)O [sclareol]	4.64	2.80	5.41	
CN1[C@@H](CC(=O)c2ccccc2)CCC[C@H]1C[C@H](O)c1ccccc1 [lobeline hydrochloride]	3.67	6.62	6.75	
CC(C)c1ccc2c(c1)CC[C@H]1[C@](C)(C(N)=O)CCC[C@]21C [dehydroabietamide]	4.15	3.42	5.12	
CC(CN(C)C)CN1c2ccccc2CCc2ccccc21 (centres unmarked) [trimipramine maleate]	5.24	5.18	5.16	EC50 [1, 4]: 180 nM; Emax [1, 5]: 16.4%; Emax ([2]; Mus musculus, Primary neuron): 20%; EC50 ([2]; Mus musculus, Primary neuron): 360 nM
CCCCOc1cc(C(=O)NCCN(CC)CC)c2ccccc2n1 [dibucaine hydrochloride]	6.22	3.83	6.82	
OC(CNCC(O)C1CCc2cc(F)ccc2O1)C1CCc2cc(F)ccc2O1 (centres unmarked) [nebivolol hydrochloride]	6.92	3.73	5.29	

Compound	ATP [1] [Z-scores]	TMRM Primary ([2]; primary screen, 12.5 μM, 24 h) [Z-scores]	TMRM Rescreen ([2]; rescreen, 24 h) [Z-scores]	further results
CCCCN1CCCCC1C(=O)Nc1c(C)cccc1C (centres unmarked) [bupivacaine hydrochloride]	4.80	5.35	5.25	
COC(=O)C[C@H]1C2(C)CC34OC5(C)O[C@@]6([C@H](OC(C)=O)C(OC(C)=O)[C@]7(C)C(/C(=C(/O)C(C)C)C(=O)O[C@H]7c7ccoc7)[C@@]6(O5)[C@H](OC(C)=O)[C@@]3(O)C2OC(=O)C(C)C)[C@]14C (some centres unmarked) [bussein]	5.58	3.44	3.92	
CC(=O)Oc1ccc2c(c1)CCC1C2CC[C@]2(C)C(=O)CCC12 (some centres unmarked) [estrone acetate]	3.36	3.26	5.89	
CC[N+]1(C)CCCC(OC(=O)C(O)(c2ccccc2)c2ccccc2)C1 (centres unmarked) [pipenzolate bromide]	3.45	3.14	7.09	
C[C@]12CC[C@@H](O)C[C@@H]1CC[C@@H]1[C@@H]2CC[C@]2(C)C(=O)CC[C@@H]12 [androsterone]	5.63			TMRM Primary [2]: 3.77 Z-scores; TMRM Rescreen [2]: 4.76 Z-scores
CCCCOc1ccc(OCCCN2CCOCC2)cc1 [pramoxine hydrochloride]	−1.97	2.93	−4.72	
CCCNC(C)(C)COC(=O)c1ccccc1 [meprylcaine hydrochloride]	6.05	3.56	5.91	
Cc1nc2sccn2c(=O)c1CCN1CCC(=C(c2ccc(F)cc2)c2ccc(F)cc2)CC1 [ritanserin]	4.40	5.25	5.83	
COc1cc(O)c2c(=O)cc(C)oc2c1CC=C(C)C [heteropeucenin, methyl ether]	5.92	3.45	4.33	
COC(=O)[C@H]1[C@H]2C[C@H]3c4[nH]c5ccccc5c4CCN3C[C@H]2CC[C@@H]1O [rauwolscine hydrochloride]	8.40	4.30	8.77	EC50 [1, 4]: 1000 nM; Emax [1, 5]: 20.9%; Emax ([2]; Mus musculus, Primary neuron): 29.4%; EC50 ([2]; Mus musculus, Primary neuron): 4580 nM
CCN(CC)CCOc1ccc(C(=C(Cl)c2ccccc2)c2ccccc2)cc1 [clomiphene citrate]	4.20	2.94	3.45	
C1CCN2C[C@@H]3C[C@@H](CN4CCCC[C@@H]34)[C@H]2C1 [sparteine sulfate]	2.92	2.65	1.95	
O=C(c1ccc(F)cc1)C1CCN(CCn2c(=O)[nH]c3ccccc3c2=O)CC1 [ketanserin tartrate]	5.68	5.62	5.26	EC50 [1, 4]: 160 nM; Emax [1, 5]: 19.1%; Emax ([2]; Mus musculus, Primary neuron): 30%; EC50 ([2]; Mus musculus, Primary neuron): 1300 nM
CN(C)CCC=C1c2ccccc2CCc2ccccc21 [amitriptyline hydrochloride]	4.82	4.78	1.81	
CN1CCC(=C2c3ccccc3CC(=O)c3sccc32)CC1 [ketotifen fumarate]	5.58	3.91	3.98	hit in TMRM primary screen when assayed at 4 h ([2]; 12.5 μM, 4 h): ketotifen fumarate*
CC1=C2C[C@H]3[C@@H](CC=C4C[C@@H](O)CC[C@@]43C)[C@@H]2CC[C@]12O[C@@H]1C[C@H](C)CN[C@H]1[C@H]2C [cyclopamine]	5.15	3.74	8.14	
